Measured values: the supplement of paper PMC10307832

Columns and labels:
Experiment in all cases: relative viability (nuclei count vs DMSO), 5 days (fraction); higher = more cells survive
Midostaurin + Pemetrexed = compound: CO[C@@H]1[C@H](N(C)C(=O)c2ccccc2)C[C@H]2O[C@]1(C)n1c3ccccc3c3c4c(c5c6ccccc6n2c5c31)C(=O)NC4 [Midostaurin] + Nc1nc2[nH]cc(CCc3ccc(C(=O)N[C@@H](CCC(=O)O)C(=O)O)cc3)c2c(=O)[nH]1 [Pemetrexed] (partner 0.2 µM)
In short: (§1)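 Five library-drug doses in √10 steps were combined with a fixed anchor-drug dose, or a single drug was given alone, by pin tool to lung cancer cell lines in 1536-well plates the day after seeding. Nuclei were stained and counted after 5 days. Relative viability is the nuclei count in treated wells over that in vehicle wells, taken as the median of duplicate plates.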

[1] = compound: COc1cc(-c2nn([C@H]3CC[C@H](N4CCN(C(C)=O)CC4)CC3)c3ncnc(N)c23)ccc1NC(=O)c1cc2ccccc2n1C + CC(C)C[C@H](NC(=O)[C@H](Cc1ccccc1)NC(=O)c1cnccn1)B(O)O [Bortezomib] (partner 0.002 µM)
In short: as §1

Midostaurin + Olaparib = compound: CO[C@@H]1[C@H](N(C)C(=O)c2ccccc2)C[C@H]2O[C@]1(C)n1c3ccccc3c3c4c(c5c6ccccc6n2c5c31)C(=O)NC4 [Midostaurin] + O=C(c1cc(Cc2n[nH]c(=O)c3ccccc23)ccc1F)N1CCN(C(=O)C2CC2)CC1 [Olaparib] (partner 8 µM)
In short: as §1

[2] = compound: COc1cc(-c2nn([C@H]3CC[C@H](N4CCN(C(C)=O)CC4)CC3)c3ncnc(N)c23)ccc1NC(=O)c1cc2ccccc2n1C + CS(=O)(=O)CCNCc1ccc(-c2ccc3ncnc(Nc4ccc(OCc5cccc(F)c5)c(Cl)c4)c3c2)o1 [Lapatinib] (partner 2 µM)
In short: as §1

[3] = compound: COc1cc(-c2nn([C@H]3CC[C@H](N4CCN(C(C)=O)CC4)CC3)c3ncnc(N)c23)ccc1NC(=O)c1cc2ccccc2n1C + CS(=O)(=O)N1CCN(Cc2cc3nc(-c4cccc5[nH]ncc45)nc(N4CCOCC4)c3s2)CC1 [Pictilisib] (partner 1 µM)
In short: as §1

Row | Cell Line | relative viability (Midostaurin + Pemetrexed; first compound 0.01 µM) | relative viability (Midostaurin + Pemetrexed; first compound 0.03162 µM) | relative viability (Midostaurin + Pemetrexed; first compound 0.1 µM) | relative viability (Midostaurin + Pemetrexed; first compound 0.3162 µM) | relative viability ([1]; first compound 0.0128 µM) | relative viability ([1]; first compound 0.04048 µM) | relative viability ([1]; first compound 0.128 µM) | relative viability ([1]; first compound 1.28 µM) | relative viability (Midostaurin + Olaparib; first compound 0.01 µM) | relative viability (Midostaurin + Olaparib; first compound 0.03162 µM) | relative viability (Midostaurin + Olaparib; first compound 0.1 µM) | relative viability (Midostaurin + Olaparib; first compound 0.3162 µM) | relative viability ([2]; first compound 0.0128 µM) | relative viability ([2]; first compound 0.04048 µM) | relative viability ([2]; first compound 0.128 µM) | relative viability ([2]; first compound 1.28 µM) | relative viability ([3]; first compound 0.0128 µM) | relative viability ([3]; first compound 0.04048 µM) | relative viability ([3]; first compound 0.128 µM) | relative viability ([3]; first compound 1.28 µM)
1 | NCI-H1975 | 0.298 | 0.31 | 0.271 | 0.279 | 0.401 | 0.399 | 0.332 | 0.199 | 0.733 | 0.677 | 0.701 | 0.466 | 0.891 | 0.928 | 0.837 | 0.447 | 0.322 | 0.31 | 0.234 | 0.149
2 | NCI-H1993 | 0.627 | 0.542 | 0.597 | 0.51 | 1.2 | 1.09 | 1 | 0.956 | 1.08 | 0.791 | 1.01 | 1.11 | 0.853 | 0.811 | 0.807 | 0.812 | 0.845 | 0.899 | 0.826 | 0.775
3 | NCI-H2009 | 0.956 | 0.878 | 0.921 | 1.06 | 1.14 | 0.555 | 1.06 | 0.962 | 0.696 | 0.668 | 0.611 | 0.512 | 1.26 | 0.438 | 0.961 | 0.888 | 0.783 | 0.303 | 0.649 | 0.578
4 | NCI-H2023 | 0.194 | 0.244 | 0.227 | 0.19 | 0.977 | 1.11 | 0.897 | 0.905 | 0.494 | 0.505 | 0.396 | 0.246 | 0.856 | 0.782 | 0.923 | 0.845 | 0.277 | 0.188 | 0.212 | 0.22
5 | NCI-H2085 | 0.971 | 0.784 | 0.928 | 0.632 | 1.05 | 1.06 | 1.12 | 1.14 | 0.76 | 0.708 | 0.834 | 0.711 | 0.77 | 0.822 | 0.805 | 0.564 | 0.532 | 0.484 | 0.381 | 0.458
6 | NCI-H2087 | 0.701 | 0.665 | 0.66 | 0.658 | 0.855 | 0.772 | 0.869 | 0.991 | 0.585 | 0.539 | 0.635 | 0.608 | 1.05 | 0.659 | 0.93 | 1.17 | 1.06 | 0.399 | 0.842 | 0.753
7 | NCI-H2126 | 0.672 | 0.627 | 0.711 | 0.688 | 1.17 | 1.17 | 1.06 | 1.03 | 0.813 | 0.901 | 0.853 | 0.779 | 0.801 | 0.859 | 0.718 | 0.68 | 0.567 | 0.434 | 0.48 | 0.438
8 | NCI-H2228 | 0.35 | 0.343 | 0.313 | 0.334 | 0.945 | 1.08 | 0.804 | 0.559 | 0.618 | 0.588 | 0.744 | 0.556 | 1.37 | 0.958 | 1.14 | 0.861 | 0.408 | 0.275 | 0.337 | 0.375
9 | NCI-H2347 | 0.459 | 0.416 | 0.417 | 0.405 | 0.82 | 1.07 | 1.15 | 0.697 | 0.602 | 0.54 | 0.424 | 0.519 | 1.1 | 0.874 | 0.927 | 1.05 | 0.754 | 0.579 | 0.772 | 0.414
10 | NCI-H2405 | 1.11 | 1 | 0.974 | 1.27 | 0.939 |  | 0.936 | 0.668 | 0.841 | 0.827 | 0.838 | 0.861 | 1.13 | 0.554 | 0.955 | 0.446 | 0.422 | 0.26 | 0.303 | 0.258
11 | NCI-H3122 | 0.201 | 0.185 | 0.201 | 0.19 | 1.14 |  | 1.01 | 0.788 | 0.655 | 0.614 | 0.573 | 0.723 | 1.04 |  | 0.99 | 0.841 | 0.552 |  | 0.548 | 0.484
12 | PC-3 [JPC-3] | 0.979 | 1.07 | 0.962 | 1.22 | 0.94 | 0.823 | 0.827 | 0.819 | 1.08 | 0.946 | 1.05 | 1.07 | 0.444 | 0.444 | 0.431 | 0.462 | 0.65 | 0.791 | 0.721 | 0.764
13 | PC-14 | 0.123 | 0.125 | 0.118 | 0.111 | 0.9 | 0.967 | 0.892 | 1.06 | 0.328 | 0.281 | 0.206 | 0.199 | 0.308 | 0.371 | 0.297 | 0.208 | 0.744 | 0.792 | 0.664 | 0.625
14 | RERF-LC-KJ | 0.477 | 0.476 | 0.492 | 0.463 | 1.16 | 1.21 | 1.13 | 1.07 | 0.819 | 0.839 | 0.814 | 0.716 | 0.911 | 0.915 | 0.849 | 0.857 | 0.572 | 0.557 | 1.11 | 0.538
15 | SK-LU-1 | 0.99 | 0.92 | 0.836 | 0.794 | 1.53 | 1.22 | 1.17 | 0.783 | 0.471 | 0.439 | 0.443 | 0.346 | 0.913 | 0.902 | 0.721 | 0.681 | 0.54 | 0.488 | 0.498 | 0.269
16 | SW 1573 | 0.843 | 0.957 | 0.849 | 0.752 | 0.956 | 1.11 | 0.98 | 0.8 | 0.503 | 0.547 | 0.403 | 0.249 | 0.981 | 1 | 0.914 | 0.808 | 0.496 | 0.497 | 0.497 | 0.362
